Laboratory results: patent US20090275583A1, “ANTIVIRAL COMPOUNDS AND USE THEREOF” (Myriad Genetics, Incorporated, priority 2006, published 2009)
Read-outs that look alike come from different tables or passages of the source.

Assays:
[1] = tested on: HIV-1 laboratory strain, NL4-3; experiment: MT-4 cytoprotection assay; type: cell-based
Method: The HTLV-1 transformed T cell line, MT-4, is highly susceptible to HIV-1 infection. Anti-HIV-1 agents were evaluated in this target cell line by protection from the HIV-induced cytopathic effect. In this assay, viability of both HIV-1 and mock-infected cells was assessed in a […] assay that monitors the ability of metabolically-active cells to reduce the tetrazolium salt WST-1. Cytoprotection by antiviral compounds is indicated by the positive readout of increased WST-1 cleavage.
Briefly, exponentially growing MT-4 cells were mock-infected or batch-infected with the HIV-1 laboratory strain, NL4-3, at a multiplicity of infection of 0.0005. Following a two hour infection, the cells were washed to remove unbound virus and plated in the presence of increasing concentrations of compound. After four days incubation, cytoprotection in the infected cells and compound toxicity in mock-infected cells were analyzed using the WST-1 assay.

HIV-1NL4-3 = experiment: P4-MAGI assay; type: cell-based
Description: P4 cells were used to test the effects of compounds on virus fusion activity. P4 cells are HIV-1 infectable CD4^+ HeLa cells that bear the bacterial lacZ gene under the control of a minimal HIV-1 LTR. Charneau, et. al., J. Mol. Biol. 241:651-662 (1994). When these cells are infected with HIV-1, β-galactosidase is expressed due to Tat activation of the viral LTR. In this assay, P4 cells were infected with the laboratory adapted strain HIV-1NL4-3 at a multiplicity of infection of 1 in the presence of DEAE-Dextran. Immediately after addition of virus to the cells, increasing concentrations of compound were added to the cells. […] The effect on cell viability (TC50, concentration of compound that inhibits growth by 50%) was determined in mock-infected cells with the WST-1 Cell Proliferation Reagent (Roche Diagnostics).

[2] = Human immunodeficiency virus 1, NL43, MT4, 96 h, MT-4 cells, four days incubation, WST-1 readout, read-out: MT4 EC50
[3] = Human immunodeficiency virus 1, 24 h, P4 cells, 24 hour incubation, β-galactosidase expression, read-out: P4-MAGI IC50
[4] = Human immunodeficiency virus 1, NL43, less than about 100 nm, read-out: MT-4 assay EC50 (concentration of compound that reduces the virus induced cytopathic effect by 50%)
[5] = Human immunodeficiency virus 1, text statement, less than about 100 nm, read-out: P4-MAGI assay IC50

| SMILES | EC50 [1, 2] | IC50 (HIV-1NL4-3; [3]) | EC50 [1, 4] | IC50 (HIV-1NL4-3; [5]) |
| --- | --- | --- | --- | --- |
| C=C(C)[C@@H]1CC[C@]2(C(=O)NCCc3cccc(C(=O)NCc4ccc(C(=O)NCc5cccnc5C(=O)O)cc4)c3)CC[C@]3(C)C(CCC4[C@@]5(C)CC[C@H](O)C(C)(C)C5CC[C@]43C)C12 (stereo partly drawn) [Example 193] | 2 nM | 9 nM | – | – |
| C=C(C)[C@@H]1CC[C@]2(C(=O)NCCc3cccc(C(=O)NCc4ccc(O)c(C(=O)O)c4)c3)CC[C@]3(C)C(CCC4[C@@]5(C)CC[C@H](O)C(C)(C)C5CC[C@]43C)C12 (stereo partly drawn) [Example 240] | 33 nM | 19 nM | – | – |
| C=C(C)[C@@H]1CC[C@]2(C(=O)NCCc3cccc(C(=O)NCc4ccc(OCCCn5ccnc5)c(C(=O)O)c4)c3)CC[C@]3(C)C(CCC4[C@@]5(C)CC[C@H](O)C(C)(C)C5CC[C@]43C)C12 (stereo partly drawn) [Example 242] | 91 nM | 41.3 nM | – | – |
| C=C(C)[C@@H]1CC[C@]2(C(=O)NCCc3cccc(C(=O)NCc4ccc(N(C)C)cc4)c3)CC[C@]3(C)C(CCC4[C@@]5(C)CC[C@H](O)C(C)(C)C5CC[C@]43C)C12 (stereo partly drawn) [Example 179] | 98 nM | 72 nM | – | – |
| C=C(C)[C@@H]1CC[C@]2(C(=O)NCc3cccc(C(=O)NCc4ccc(F)c(C(=O)O)c4)c3)CC[C@]3(C)C(CCC4[C@@]5(C)CC[C@H](O)C(C)(C)C5CC[C@]43C)C12 (stereo partly drawn) [Example 27] | 73 nM | 53.5 nM | < 100 nM | < 100 nM |
| C=C(C)[C@@H]1CC[C@]2(C(=O)NCCc3cccc(C(=O)NCc4ccc(C(=O)O)cn4)c3)CC[C@]3(C)C(CCC4[C@@]5(C)CCC(=O)C(C)(C)C5CC[C@]43C)C12 (stereo partly drawn) [Example 202] | 20.5 nM | 22.2 nM | – | – |
| C=C(C)[C@@H]1CC[C@]2(C(=O)NCCc3cccc(-c4nnc(-c5ccc(C(=O)O)cn5)[nH]4)c3)CC[C@]3(C)C(CCC4[C@@]5(C)CC[C@H](O)C(C)(C)C5CC[C@]43C)C12 (stereo partly drawn) [Example 254] | 351 nM | 69 nM | – | – |
| C=C(C)[C@@H]1CC[C@]2(C(=O)NCCc3cccc(-c4nnc(Cc5ccc(C#N)cc5)o4)c3)CC[C@]3(C)C(CCC4[C@@]5(C)CC[C@H](O)C(C)(C)C5CC[C@]43C)C12 (stereo partly drawn) [Example 216] | 2700 nM | 66.5 nM | – | – |
| C=C(C)[C@@H]1CC[C@]2(C(=O)NCCc3cccc(C(=O)NCc4ccc(OCCCN5CC(C)NC(C)C5)c(C(=O)O)c4)c3)CC[C@]3(C)C(CCC4[C@@]5(C)CC[C@H](O)C(C)(C)C5CC[C@]43C)C12 (stereo partly drawn) [Example 241] | 22.5 nM | 5 nM | – | – |
| C=C(C)[C@@H]1CC[C@]2(C(=O)NCCc3cccc(C(=O)NCc4nc(C(=O)OC)co4)c3)CC[C@]3(C)C(CCC4[C@@]5(C)CC[C@H](O)C(C)(C)C5CC[C@]43C)C12 (stereo partly drawn) [Example 152] | 14 nM | 36 nM | – | – |
| C=C(C)[C@@H]1CC[C@]2(C(=O)NCc3cccc(C(=O)NCc4ccc(OCCCn5ccnc5)c(C(=O)OC)c4)c3)CC[C@]3(C)C(CCC4[C@@]5(C)CC[C@H](O)C(C)(C)C5CC[C@]43C)C12 (stereo partly drawn) [Example 121] | 17 nM | 21.3 nM | – | – |
| C=C(C)[C@@H]1CC[C@]2(C(=O)NCCc3cccc(C(=O)NCc4ccc(C(=O)NCc5ncccc5C(=O)OC)cc4)c3)CC[C@]3(C)C(CCC4[C@@]5(C)CC[C@H](O)C(C)(C)C5CC[C@]43C)C12 (stereo partly drawn) [Example 187] | 40 nM | 8 nM | – | – |
| C=C(C)[C@@H]1CC[C@]2(C(=O)NCCc3cccc(C(=O)NC(Cc4ccc(OCC(=O)O)cc4)C(=O)O)c3)CC[C@]3(C)C(CCC4[C@@]5(C)CC[C@H](O)C(C)(C)C5CC[C@]43C)C12 (stereo partly drawn) [Example 146] | 3300 nM | 197 nM | – | – |
| C=C(C)[C@@H]1CC[C@]2(C(=O)NCCc3cccc(C(=O)NCc4ccc(OCCCn5cnc(C(=O)OC)c5)cc4)c3)CC[C@]3(C)C(CCC4[C@@]5(C)CC[C@H](O)C(C)(C)C5CC[C@]43C)C12 (stereo partly drawn) [Example 235] | 66.5 nM | 18 nM | – | – |
| C=C(C)[C@@H]1CC[C@]2(C(=O)NCCc3cccc(C(=O)NCc4cnc(C)cn4)c3)CC[C@]3(C)C(CCC4[C@@]5(C)CC[C@H](O)C(C)(C)C5CC[C@]43C)C12 (stereo partly drawn) [Example 157] | 111 nM | 32 nM | – | – |
| C=C(C)[C@@H]1CC[C@]2(C(=O)NCc3cccc(C(=O)NCCc4ccc(C(=O)O)s4)c3)CC[C@]3(C)C(CCC4[C@@]5(C)CC[C@H](O)C(C)(C)C5CC[C@]43C)C12 (stereo partly drawn) [Example 48] | 63 nM | 29 nM | < 100 nM | < 100 nM |
